Source: article PMC10552397 (Cell Communication and Signaling : CCS, 2023)

Test system: HeLa wt cells
Test: BFA washout assay (Golgi reassembly, TGN46 and B4GALT1 staining)
Type: cell-based
Settings: 120 min washout
Method: For BFA washout assays, HeLa wt cells were seeded on glass coverslips in 24-well plates. […] After 24 h, the treatment medium was removed, cells were washed once with DPBS and then treated with 5 µg/mL BFA or 0.1% DMSO as a control for 2 h. Cells were then washed with DPBS four times and incubated with fresh culture medium for 0/15/30/45/60/120 min. After the respective BFA washout time, cells were fixed in ice-cold methanol for 15 min on ice, washed three times with DPBS and blocked in 3% BSA (Roth, Karlsruhe, Germany, #8076) overnight. Samples were incubated with primary antibodies diluted in 3% BSA for 2 h and then washed three times with DPBS, incubated with the appropriate secondary antibodies diluted in 3% BSA for 30 min and washed three times with DPBS. Afterwards, cells were embedded in ProLong Glass Antifade Mountant (Thermo Fisher Scientific, Waltham, MA, USA, #P36980) containing 1 µg/mL DAPI (Roth, Karlsruhe, Germany, #6335.1). Images were recorded with an Axio Observer 7 fluorescence microscope (Carl Zeiss Microscopy, Oberkochen, Germany) using a 40x/1,4 Oil DIC M27 Plan-Apochromat objective (Carl Zeiss Microscopy, Oberkochen, Germany) and an ApoTome 2 (Carl Zeiss Microscopy, Oberkochen, Germany).

For `CCCCCC1=C/C(=C/c2[nH]c(-c3ccc[nH]3)cc2OC)N=C1C` [Prodigiosin, prodigiosin], the “Golgi reassembly during BFA washout” value (10 nM pre-treatment 24 h) was “fully reformed Golgi complex” and the “Golgi reassembly during BFA washout” value (100 nM pre-treatment 24 h) was “severely disturbed Golgi reassembly”.
